Target: T1, BACE1 (Homo sapiens, UniProt P56817)
T1 construct: endogenous in cells; host or cells: HEK-293 cells stably transfected with wild type APP695
Assay: Cellular BACE1 Inhibition Assay (in vitro cellular Amyloidβ 1-40 production, HTRF immunoassay)
Format: cell-based
Details: inhibition of Amyloidβ 1-40 production; HEK-293 cells stably transfected with wild type APP695; 48 hours incubation; single assay or mean of multiple assays
Protocol: The BACE inhibition properties of the compounds of the invention may be determined by the following in vitro cellular Amyloidβ 1-40 production assay.
Inhibition of Amyloidβ 1-40 production was determined by incubating cells with compound for 48 hours and quantifying the level of Amyloidβ 1-40 using an homogeneous time-resolved fluorescence (“HTRF”) immunoassay.
Materials and Methods: HEK-293 cells stably transfected with a DNA construct containing the coding sequence for the wild type APP695 sequence were grown in Dulbecco's Modified Eagle Medium (“DMEM”) supplemented with 10% fetal bovine serum, penicillin/streptomycin and 150 μg/mL G418. Cells were plated in 96-well plates at 35,000 cells/well and allowed to attach for 8-12 hours. Media was changed to DMEM supplemented with 10% fetal bovine serum, penicillin/streptomycin 15 minutes prior to compound addition. Diluted compounds were then added at a final concentration of 0.5% DMSO. After 48 hours, 4 μL of media from each well was added to a corresponding well of a 384 well plate (Perkin Elmer Cat#6008280) containing the HTRF reagents. HTRF reagents were obtained from the CisBio Amyloidβ 1-40 peptide assay kit (Cat# 62B40PEC) and were prepared as follows anti-peptide β (1-40)-Cryptate and anti-peptide β (1-40)-XL655 were stored in 2 plate aliquots at −80° C. Diluent and Reconstitution buffer were stored at 4° C. Aliquots of the two antibodies were diluted 1:100 with Reconstitution buffer, and this mixture was diluted 1:2 with Diluent. 12 μL of the reagent mixture was added to the required wells of the 384 well assay plate. The assay plate was incubated at 4° C. for 17 hours and then analyzed for fluorescence at 665 and 620 nm. The reported IC50 below may be from a single assay or the mean of multiple assays.

T1 sequence (P56817 46-501): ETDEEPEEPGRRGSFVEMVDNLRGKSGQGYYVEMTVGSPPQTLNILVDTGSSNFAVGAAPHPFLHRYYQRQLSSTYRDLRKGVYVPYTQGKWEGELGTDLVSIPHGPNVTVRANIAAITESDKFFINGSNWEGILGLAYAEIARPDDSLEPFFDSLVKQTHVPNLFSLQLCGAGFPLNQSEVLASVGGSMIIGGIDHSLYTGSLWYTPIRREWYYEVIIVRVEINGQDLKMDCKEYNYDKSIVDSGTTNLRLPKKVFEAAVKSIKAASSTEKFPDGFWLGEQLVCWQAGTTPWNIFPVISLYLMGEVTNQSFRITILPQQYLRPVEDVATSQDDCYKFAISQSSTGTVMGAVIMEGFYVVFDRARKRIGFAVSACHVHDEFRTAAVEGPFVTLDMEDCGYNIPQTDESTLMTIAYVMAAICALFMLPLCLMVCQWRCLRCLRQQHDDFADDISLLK

| SMILES | IC50 [nM] |
| --- | --- |
| CN1C(=O)C2(N=C1N)c1cc(-c3cncnc3)ccc1OC1CC(F)(F)CCC12 (stereo not drawn) [Example 18, 2-amino-3′,3′-difluoro-1-methyl-7′-(pyrimidin-5-yl)-1′,2′,3′,4′,4a′,9a′-hexahydrospiro[imidazole-4,9′-xanthen]-5(1H)-one] | 125 |
| CN1C(=O)C2(N=C1N)c1cc(-c3cncc(Cl)c3)ccc1OC1CC(F)(F)CCC12 (stereo not drawn) [Example 17, 2-amino-7′-(5-chloropyridin-3-yl)-3′,3′-difluoro-1-methyl-1′,2′,3′,4′,4a′,9a′-hexahydrospiro[imidazole-4,9′-xanthen]-5(1H)-one] | 74.1 |
| CN1C(=O)C2(N=C1N)c1cc(-c3cc(F)cc(Cl)c3)ccc1OC1CC(O)CCC12 (stereo not drawn) [Example 1, 2-amino-7′-(3-chloro-5-fluorophenyl)-3′-hydroxy-1-methyl-1′,2′,3′,4′,4a′,9a′-hexahydro spiro[imidazole-4,9′-xanthen]-5(1H)-one] | 2 |
| CN1C(=O)C2(N=C1N)c1cc(-c3cc(F)cc(Cl)c3)ccc1OC1CC(C)(O)CCC12 (stereo not drawn) [Example 7, 2-amino-7′-(3-chloro-5-fluorophenyl)-3′-hydroxy-1,3′-dimethyl-1′,2′,3′,4′,4a′,9a′-hexahydrospiro[imidazole-4,9′-xanthen]-5(1H)-one] | 35.9 |
| CN1C(=O)C2(N=C1N)c1cc(-c3cccnc3F)ccc1OC1CC(F)(F)CCC12 (stereo not drawn) [Example 19, 2-amino-3′,3′-difluoro-7′-(2-fluoropyridin-3-yl)-1-methyl-1′,2′,3′,4′,4a′,9a′-hexahydrospiro[imidazole-4,9′-xanthen]-5(1H)-one] | 21.4 |
| CN1C(=O)[C@]2(N=C1N)c1cc(-c3cccc(C#N)c3)ccc1O[C@]1(C)CCCO[C@H]12 (relative stereo) [Example 63, 3-((4S*,4a′R*,10a′S*)-2-amino-1,4a′-dimethyl-5-oxo-1,3′,4′,4a′,5,10a′-hexahydro-2′H-spiro[imidazole-4,10′-pyrano[3,2-b]chromen]-8′-yl)benzonitrile] | 4.3 |
| CN1C(=O)[C@]2(N=C1N)c1cc(-c3cccnc3F)ccc1O[C@H]1CCOCC12F (stereo partly drawn) [Example 99, (4R,4a′S)-2-amino-10a′-fluoro-8′-(2-fluoropyridin-3-yl)-1-methyl-3′,4′,4a′,10a′-tetrahydro-1′H-spiro[imidazole-4,10′-pyrano[4,3-b]chromen]-5(1H)-one] | 241 |
| CN1C(=O)C2(N=C1N)c1cc(-c3cncc(Cl)c3)ccc1C[C@H]1CCOC[C@@H]12 (stereo partly drawn) [Example 69, (4aS,10aS)-2′-amino-8-(5-chloropyridin-3-yl)-1′-methyl-1,3,4,4a,5,10a-hexahydrospiro[benzo[g]isochromene-10,4′-imidazol]-5′(1′H)-one] | 0.8 |
| CN1C(=O)C2(N=C1N)c1cc(-c3cncc(Cl)c3)ccc1O[C@H]1CCCC[C@@H]12 (relative stereo) [Example 15, trans 2-amino-7′-(5-chloropyridin-3-yl)-1-methyl-1′,2′,3′,4′,4a′,9a′-hexahydrospiro[imidazole-4,9′-xanthen]-5(1H)-one] | 8.6 |

Reference: patent US20120083501A1, “COMPOUNDS FOR TREATING NEURODEGENERATIVE DISEASES” (priority 2010, published 2012)
